# Source: BindingDB's records for doi:10.1016/j.bmcl.2005.06.091 (Schering-Plough Research Institute, 2005)
# Numbered stars: 1 amine (or outer) side, 2 acyl side, 3 side chain; on linkers, the order of the positions; unused ones are H or OH. Square brackets hold non-standard residues; d marks the D form. Peptide text beside a SMILES is read from it. * marks the point of attachment. Isobutyloxycarbonyl = CC(C)COC(=O)*; X1 = CCCC(N[*:1])C(=O)C(=O)[*:2]
# Molecular target: Genome polyprotein (Hepatitis C virus genotype 1a (isolate H77), UniProt P27958)
# Sequence (P27958 1027-1657 limits assumed): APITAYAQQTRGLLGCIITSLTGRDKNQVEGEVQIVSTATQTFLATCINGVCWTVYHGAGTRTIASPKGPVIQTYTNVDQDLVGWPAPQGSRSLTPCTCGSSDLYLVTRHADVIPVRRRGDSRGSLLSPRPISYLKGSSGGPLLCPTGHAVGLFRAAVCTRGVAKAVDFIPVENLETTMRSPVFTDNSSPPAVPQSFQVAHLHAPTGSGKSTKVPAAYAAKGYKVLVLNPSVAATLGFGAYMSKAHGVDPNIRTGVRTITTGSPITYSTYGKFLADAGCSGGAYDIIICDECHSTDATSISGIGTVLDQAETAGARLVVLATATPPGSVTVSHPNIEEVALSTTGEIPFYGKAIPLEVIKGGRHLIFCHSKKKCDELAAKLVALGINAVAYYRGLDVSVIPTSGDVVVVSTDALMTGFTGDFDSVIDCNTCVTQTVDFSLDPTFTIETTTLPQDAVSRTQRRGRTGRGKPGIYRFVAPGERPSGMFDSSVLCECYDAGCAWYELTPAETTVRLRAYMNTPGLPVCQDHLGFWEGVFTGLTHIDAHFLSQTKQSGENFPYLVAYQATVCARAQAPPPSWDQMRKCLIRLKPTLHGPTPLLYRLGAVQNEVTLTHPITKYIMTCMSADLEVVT
# Assay: Continuous Spectrophotometric Assay
# Details: pH 6.5; 30 °C
# Method: Proteolytic cleavage of the ester linkage between the Nva (L-norvaline) and the chromophore (PAP) was monitored for change in absorbance at 370 nm. Initial velocities were determined using linear regression and kinetic constants were obtained by fitting the data to the Michaelis-Menten equation.
row,SMILES,Ki
1,"CCCC(NC(=O)[C@@H]1CCCN1C(=O)[C@@H](NC(=O)OCC(C)C)C(C)C)C(=O)C(=O)NCC(=O)N[C@@H](CC(=O)O)C(=O)O (stereo partly drawn) [1,4-disodium (2S)-2-[2-(3-{[(2S)-1-[(2S)-3-methyl-2-{[(2-methylpropoxy)carbonyl]amino}butanoyl]pyrrolidin-2-yl]formamido}-2-oxohexanamido)acetamido]butanedioate] (Isobutyloxycarbonyl-VP[X1]GD-OH)",> 100 µM
2,"CCCC(NC(=O)[C@@H]1CCCN1C(=O)[C@@H](NC(=O)OCC(C)C)C(C)C)C(=O)C(=O)NCC(=O)N[C@@H](CCC(=O)O)C(=O)O (stereo partly drawn) [1,5-dilithio (2S)-2-[2-(3-{[(2S)-1-[(2S)-3-methyl-2-{[(2-methylpropoxy)carbonyl]amino}butanoyl]pyrrolidin-2-yl]formamido}-2-oxohexanamido)acetamido]pentanedioate] (Isobutyloxycarbonyl-VP[X1]GE-OH)",> 100 µM
